Assay results reported in patent US10994015B2, “EGFR proteolysis targeting chimeric molecules and associated methods of use” (Arvinas Operations, Inc., priority 2016, dated 2021).

Columns and labels:
[1] = target: EGFR L858R/T790M double mutant (H1975) (Homo sapiens (Human), UniProt P00533, L858R/T790M); experiment: EGFR protein degradation assay (Western blot); assay type: cell-based; settings: 72 hours, 300 nM to 10 nM
Procedure, shortened: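 Cells carrying the relevant EGFR form were plated at 300,000 cells per well in 6-well plates and left to attach overnight. After washing in ice-cold PBS, cells were lysed in 400 μl lysis buffer with protease inhibitors, scraped, and clarified at 10 000 rpm for 10 minutes. EGFR levels were then assessed by Western blot with tubulin as loading control.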

[2] = target: HER3 (Homo sapiens (Human), UniProt P21860); experiment: TR-FRET assay for ERBB kinases; assay type: biochemical; settings: geometric mean if measured more than once
[3] = target: EGFR L858R/T790M (Homo sapiens (Human), UniProt P00533, L858R/T790M); experiment: TR-FRET assay for ERBB kinases; assay type: biochemical; settings: geometric mean if measured more than once
Procedure, shortened: (§1)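 Kinase pre-incubated 10 min with compound in pH 7.5 HEPES buffer with MgCl2 and DTT, then reacted 10 min at room temperature with fluorescein-poly-GluTyr and ATP (substrate mix at 3 mM ATP, 30 uM peptide). EDTA-quenched; Tb-pY20 antibody TR-FRET read at 520/490 nm.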

[4] = target: EGFR L858R/T790M/C797S (Homo sapiens (Human), UniProt P00533, C797S/L858R/T790M); experiment: TR-FRET assay for ERBB kinases; assay type: biochemical; settings: geometric mean if measured more than once
Procedure, shortened: as §1

[5] = target: EGFR WT (Homo sapiens (Human), UniProt P00533); experiment: TR-FRET assay for ERBB kinases; assay type: biochemical; settings: geometric mean if measured more than once
Procedure, shortened: as §1

[6] = target: EGFR Exon20NPG (Homo sapiens (Human), UniProt P00533, INS770NPG); experiment: TR-FRET assay for ERBB kinases; assay type: biochemical; settings: geometric mean if measured more than once
Procedure, shortened: (§2)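 Compounds pre-incubated 10 min with kinase in HEPES pH 7.5 buffer (MgCl2, DTT, Pluronic), then reaction started with substrate mix (3 mM ATP, 30 µM fluorescein-poly-GluTyr, stock levels) for 10 min at room temperature. EDTA-quenched, detected by Tb-pY20 antibody TR-FRET (520/490 nm emission).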

[7] = target: EGFR L858R/T790M/C797S triple mutant (H520*) (Homo sapiens (Human), UniProt P00533, C797S/L858R/T790M); experiment: EGFR protein degradation assay (Western blot); assay type: cell-based; settings: 72 hours, 300 nM to 10 nM
Procedure, shortened: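 EGFR loss in the triple-mutant line measured by immunoblot: clarified lysates normalised by BCA, run on 4-12% Bis-Tris gels, blotted to PVDF, probed with HRP anti-rabbit secondary. Before lysis, cells were dosed from 1, 0.3, 0.1, 0.03 and 0.01 mM DMSO stocks (not final concentrations) after overnight culture at 37° C.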

[8] = target: EGFR-wt (MDA-MB-231 or MCF7 or A549 or OVCAR8) (Homo sapiens (Human), UniProt P00533); experiment: EGFR protein degradation assay (Western blot); assay type: cell-based; settings: 72 hours, 300 nM to 10 nM
Procedure, shortened: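 Cells carrying the relevant EGFR form were plated at 300,000 per well in 6-well plates and left overnight to attach. For harvest, cells were rinsed once in ice-cold PBS and lysed in 400 μl lysis buffer containing protease inhibitors. Lysates were cleared at 10 000 rpm for 10 minutes and their protein content measured by BCA. Then 10 μg per sample was separated by SDS/PAGE at 165V for 2 hours, and EGFR was detected by ECL on a Chemidoc.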

[9] = target: EGFR Δ19/746/750 (Homo sapiens (Human), UniProt P00533, DEL746-750); experiment: TR-FRET assay for ERBB kinases; assay type: biochemical; settings: geometric mean if measured more than once
Procedure, shortened: as §2

[10] = target: EGFR Δ19/746/750 T790M (Homo sapiens (Human), UniProt P00533, DEL746-750/T790M); experiment: TR-FRET assay for ERBB kinases; assay type: biochemical; settings: geometric mean if measured more than once
Procedure, shortened: as §2

EGFR WT, sequence (P00533 25-1210): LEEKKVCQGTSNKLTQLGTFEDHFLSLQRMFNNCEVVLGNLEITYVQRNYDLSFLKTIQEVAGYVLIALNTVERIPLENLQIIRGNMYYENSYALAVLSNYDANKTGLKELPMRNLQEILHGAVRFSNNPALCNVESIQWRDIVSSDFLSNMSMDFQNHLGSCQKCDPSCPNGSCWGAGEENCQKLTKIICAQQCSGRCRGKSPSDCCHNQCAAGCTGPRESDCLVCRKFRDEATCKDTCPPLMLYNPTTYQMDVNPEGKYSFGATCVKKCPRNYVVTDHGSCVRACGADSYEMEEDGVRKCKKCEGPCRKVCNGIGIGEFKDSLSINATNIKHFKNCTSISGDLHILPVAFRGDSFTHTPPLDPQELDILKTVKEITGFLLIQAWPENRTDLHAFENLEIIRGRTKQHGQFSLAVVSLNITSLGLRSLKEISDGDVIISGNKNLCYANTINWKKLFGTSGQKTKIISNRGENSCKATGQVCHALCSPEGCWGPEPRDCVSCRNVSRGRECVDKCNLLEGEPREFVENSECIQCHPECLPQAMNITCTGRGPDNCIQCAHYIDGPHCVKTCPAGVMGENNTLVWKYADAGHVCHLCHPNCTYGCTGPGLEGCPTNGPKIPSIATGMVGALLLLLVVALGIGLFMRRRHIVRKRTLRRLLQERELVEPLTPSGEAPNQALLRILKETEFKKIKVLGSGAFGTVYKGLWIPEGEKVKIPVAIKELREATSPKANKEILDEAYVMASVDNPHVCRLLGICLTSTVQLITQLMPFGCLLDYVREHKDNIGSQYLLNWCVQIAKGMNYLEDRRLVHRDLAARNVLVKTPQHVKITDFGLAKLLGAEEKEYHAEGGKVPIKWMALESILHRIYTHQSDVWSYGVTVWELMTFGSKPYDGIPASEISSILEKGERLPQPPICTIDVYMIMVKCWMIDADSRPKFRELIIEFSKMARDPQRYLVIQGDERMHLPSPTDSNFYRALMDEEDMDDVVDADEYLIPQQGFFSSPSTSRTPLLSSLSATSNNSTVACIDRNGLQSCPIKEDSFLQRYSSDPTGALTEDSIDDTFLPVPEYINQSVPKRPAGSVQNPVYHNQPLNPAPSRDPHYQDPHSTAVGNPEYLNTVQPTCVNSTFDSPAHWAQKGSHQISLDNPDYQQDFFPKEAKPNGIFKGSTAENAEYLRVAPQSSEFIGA
EGFR L858R/T790M double mutant (H1975), sequence (P00533 25-1210 T790M/L858R): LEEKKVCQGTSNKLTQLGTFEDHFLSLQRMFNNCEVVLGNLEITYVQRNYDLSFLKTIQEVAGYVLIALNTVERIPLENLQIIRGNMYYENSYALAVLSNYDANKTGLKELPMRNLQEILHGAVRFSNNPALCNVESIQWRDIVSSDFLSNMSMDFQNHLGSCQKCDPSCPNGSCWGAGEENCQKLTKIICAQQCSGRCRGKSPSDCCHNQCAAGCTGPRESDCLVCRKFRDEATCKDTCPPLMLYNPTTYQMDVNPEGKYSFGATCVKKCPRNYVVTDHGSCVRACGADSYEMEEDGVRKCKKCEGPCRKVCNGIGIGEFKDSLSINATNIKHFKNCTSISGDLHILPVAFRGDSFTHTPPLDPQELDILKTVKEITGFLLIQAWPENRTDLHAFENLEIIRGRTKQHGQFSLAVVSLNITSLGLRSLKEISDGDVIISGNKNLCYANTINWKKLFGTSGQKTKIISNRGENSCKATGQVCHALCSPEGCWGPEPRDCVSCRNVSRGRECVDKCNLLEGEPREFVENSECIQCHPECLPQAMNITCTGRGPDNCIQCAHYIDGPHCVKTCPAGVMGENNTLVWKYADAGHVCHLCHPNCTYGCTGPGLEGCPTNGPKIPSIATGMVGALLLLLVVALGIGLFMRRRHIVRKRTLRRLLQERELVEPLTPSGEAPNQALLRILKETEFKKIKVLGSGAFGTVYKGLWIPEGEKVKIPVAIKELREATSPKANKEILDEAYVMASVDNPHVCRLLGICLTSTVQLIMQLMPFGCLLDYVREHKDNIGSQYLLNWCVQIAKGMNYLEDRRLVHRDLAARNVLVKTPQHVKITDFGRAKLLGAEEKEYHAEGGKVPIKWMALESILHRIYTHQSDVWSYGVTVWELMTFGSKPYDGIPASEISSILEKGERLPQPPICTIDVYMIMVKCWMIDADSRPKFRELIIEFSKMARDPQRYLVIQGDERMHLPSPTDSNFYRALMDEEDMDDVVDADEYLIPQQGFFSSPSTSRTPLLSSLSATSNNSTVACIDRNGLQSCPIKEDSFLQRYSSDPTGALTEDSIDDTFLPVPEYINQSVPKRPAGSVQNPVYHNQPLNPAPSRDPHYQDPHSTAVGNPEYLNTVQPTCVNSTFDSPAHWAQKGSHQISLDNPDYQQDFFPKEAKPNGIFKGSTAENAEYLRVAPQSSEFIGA
EGFR L858R/T790M, sequence (P00533 25-1210 T790M/L858R): as above
HER3, sequence (P21860 20-1342, species assumed): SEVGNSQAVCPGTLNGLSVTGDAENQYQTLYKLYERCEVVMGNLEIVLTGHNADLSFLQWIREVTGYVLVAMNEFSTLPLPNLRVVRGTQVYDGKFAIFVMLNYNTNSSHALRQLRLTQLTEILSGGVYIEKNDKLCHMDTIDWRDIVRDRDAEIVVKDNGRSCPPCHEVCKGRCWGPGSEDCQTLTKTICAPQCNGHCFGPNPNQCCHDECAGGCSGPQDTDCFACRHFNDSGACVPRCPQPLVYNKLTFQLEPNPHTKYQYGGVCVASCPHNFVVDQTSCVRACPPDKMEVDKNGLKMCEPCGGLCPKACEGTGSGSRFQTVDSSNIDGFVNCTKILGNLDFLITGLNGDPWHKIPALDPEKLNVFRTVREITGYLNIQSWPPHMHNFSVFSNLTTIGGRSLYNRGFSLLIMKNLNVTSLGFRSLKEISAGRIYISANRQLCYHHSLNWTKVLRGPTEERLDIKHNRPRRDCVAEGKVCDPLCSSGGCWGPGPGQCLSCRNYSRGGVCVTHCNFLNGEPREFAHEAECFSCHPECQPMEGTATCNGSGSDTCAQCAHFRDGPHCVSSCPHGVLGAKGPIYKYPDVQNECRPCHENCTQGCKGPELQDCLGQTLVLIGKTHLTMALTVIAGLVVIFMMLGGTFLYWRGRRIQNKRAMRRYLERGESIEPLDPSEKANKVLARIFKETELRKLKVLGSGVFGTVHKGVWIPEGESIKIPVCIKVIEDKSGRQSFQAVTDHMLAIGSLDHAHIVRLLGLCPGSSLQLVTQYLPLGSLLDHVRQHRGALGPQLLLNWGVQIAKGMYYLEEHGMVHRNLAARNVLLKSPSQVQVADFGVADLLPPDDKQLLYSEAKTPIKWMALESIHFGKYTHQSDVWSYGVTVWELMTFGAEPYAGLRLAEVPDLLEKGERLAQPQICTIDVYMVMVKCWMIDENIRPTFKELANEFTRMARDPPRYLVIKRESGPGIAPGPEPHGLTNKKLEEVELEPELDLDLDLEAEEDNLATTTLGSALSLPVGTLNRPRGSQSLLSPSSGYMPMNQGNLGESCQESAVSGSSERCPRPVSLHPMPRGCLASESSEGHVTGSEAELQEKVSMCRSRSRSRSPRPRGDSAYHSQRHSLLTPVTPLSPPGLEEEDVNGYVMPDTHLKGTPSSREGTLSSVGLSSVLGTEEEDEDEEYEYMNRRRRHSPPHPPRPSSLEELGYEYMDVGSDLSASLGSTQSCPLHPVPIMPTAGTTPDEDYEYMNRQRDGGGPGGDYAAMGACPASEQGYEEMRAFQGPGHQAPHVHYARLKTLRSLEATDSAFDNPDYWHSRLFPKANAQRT

Structure (SMILES) | EGFR protein remaining, EGFR L858R/T790M double mutant [1] | IC50 [2] [µM] | IC50 [3] [µM] | IC50 [4] [µM] | IC50 [5] [µM] | IC50 [6] [µM] | EGFR protein remaining, EGFR L858R/T790M/C797S triple mutant [7] | EGFR protein remaining, EGFR-wt [8] | IC50 [9] [µM] | IC50 [10] [µM]
Cc1ncsc1-c1ccc([C@H](C)NC(=O)[C@@H]2C[C@@H](O)CN2C(=O)[C@@H](NC(=O)CN2CCN(CCCC#Cc3cccc4c3C(=O)N(C(C(=O)Nc3nccs3)c3cc(F)ccc3O)C4)CC2)C(C)(C)C)cc1 (stereo partly drawn) [Example 80, (2S,4R)-1-((2S)-2-(2-(4-(5-(2-(1-(5-fluoro-2-hydroxyphenyl)-2-oxo-2-(thiazol-2-ylamino)ethyl)-3-oxoisoindolin-4-yl)pent-4-yn-1-yl)piperazin-1-yl)acetamido)-3,3-dimethylbutanoyl)-4-hydroxy-N—((S)-1-(4-(4-methylthiazol-5-yl)phenyl)ethyl)pyrrolidine-2-carboxamide] | C (>80% EGFR protein remaining after 72 hours of incubation with the test compound at a concentration of 300 nM) | > 30 | 4.7 | 2.2 | 4.7 | 13 | C (>80% EGFR protein remaining after 72 hours of incubation with the test compound at a concentration of 300 nM) |  |  | 
CC(C)n1nc(N2CC(CN3CCN(CC4CCN(c5ccc6c(c5)C(=O)N(C5CCC(=O)NC5=O)C6=O)CC4)CC3)C2)c2cnc(Nc3ccnc(-c4cnn(S(=O)(=O)C5CC5)c4)n3)cc21 (centres unmarked) [compound 313] |  |  | 0.00029 | 0.00026 | 0.0014 |  | A (≤50% EGFR protein remaining after 72 hours of incubation with the test compound at a concentration between 300 nM and 10 nM) | C (>80% EGFR protein remaining after 72 hours of incubation with the test compound at a concentration of 300 nM) | 0.0075 | 0.0016
COC1CCN(c2nccc(Nc3cc4c(cn3)nc(COCCOCCOCCOCCOCC(=O)N[C@H](C(=O)N3C[C@H](O)C[C@H]3C(=O)N[C@@H](C)c3ccc(-c5scnc5C)cc3)C(C)(C)C)n4C(C)C)n2)CC1 [Example 81, (2S,4R)-1-((S)-18-(tert-butyl)-1-(1-isopropyl-6-((2-(4-methoxypiperidin-1-yl)pyrimidin-4-yl)amino)-1H-imidazo[4,5-c]pyridin-2-yl)-16-oxo-2,5,8,11,14-pentaoxa-17-azanonadecan-19-oyl)-4-hydroxy-N—((S)-1-(4-(4-methylthiazol-5-yl)phenyl)ethyl)pyrrolidine-2-carboxamide] | C (>80% EGFR protein remaining after 72 hours of incubation with the test compound at a concentration of 300 nM) | > 30 | 8.6 | > 30 | 2.4 | 7.1 |  |  |  | 
COC1CCN(c2nccc(Nc3cc4c(cn3)nc(COCCCN3CCN(CCCOc5ccc6c(c5)C(=O)N(C5CCC(=O)NC5=O)C6=O)CC3)n4C(C)C)n2)CC1 (centres unmarked) [compound 89] | C (>80% EGFR protein remaining after 72 hours of incubation with the test compound at a concentration of 300 nM) | > 30 | 1.6 | 0.65 | > 30 | > 30 |  |  |  | 
COC1CCN(c2nccc(Nc3cc4c(cn3)nc(COCCOCCOCCOCC(=O)N[C@H](C(=O)N3C[C@@H](O)C[C@@H]3C(=O)N[C@@H](C)c3ccc(-c5scnc5C)cc3)C(C)(C)C)n4C(C)C)n2)CC1 [compound 79] | C (>80% EGFR protein remaining after 72 hours of incubation with the test compound at a concentration of 300 nM) | > 30 | 29 | 7.6 | > 30 | > 30 |  |  |  | 
O=C1CCC(N2C(=O)c3ccc(NCCOCCOCC#Cc4cccc5c4C(=O)N(C(C(=O)Nc4nccs4)c4cc(F)ccc4O)C5)cc3C2=O)C(=O)N1 (centres unmarked) [compound 83] | C (>80% EGFR protein remaining after 72 hours of incubation with the test compound at a concentration of 300 nM) | > 30 | 2.5 | 1.2 | 3 | > 30 |  |  |  | 
O=C1CCC(N2C(=O)c3ccc(NCCOCCOCCOCC#Cc4cccc5c4C(=O)N(C(C(=O)Nc4nccs4)c4cc(F)ccc4O)C5)cc3C2=O)C(=O)N1 (centres unmarked) [Example 82, 2-(7-(3-(2-(2-(2-((2-(2,6-dioxopiperidin-3-yl)-1,3-dioxoisoindolin-5-yl)amino)ethoxy)ethoxy)ethoxy)prop-1-yn-1-yl)-1-oxoisoindolin-2-yl)-2-(5-fluoro-2-hydroxyphenyl)-N-(thiazol-2-yl)acetamide] | C (>80% EGFR protein remaining after 72 hours of incubation with the test compound at a concentration of 300 nM) | > 30 | 0.77 | 0.45 | 3.8 | > 30 |  |  |  | 
COC1CCN(c2nccc(Nc3cc4c(cn3)nc(COCCOCC(=O)N[C@H](C(=O)N3C[C@@H](O)C[C@@H]3C(=O)N[C@@H](C)c3ccc(-c5scnc5C)cc3)C(C)(C)C)n4C(C)C)n2)CC1 [compound 77] | C (>80% EGFR protein remaining after 72 hours of incubation with the test compound at a concentration of 300 nM) | > 30 | 9.1 | 9.4 | 24 | 12 |  |  |  | 
COC1CCN(c2nccc(Nc3cc4c(cn3)nc(COCCON3CCN(c5ccc6c(c5)C(=O)N(C5CCC(=O)NC5=O)C6=O)CC3)n4C(C)C)n2)CC1 (centres unmarked) [compound 72] | C (>80% EGFR protein remaining after 72 hours of incubation with the test compound at a concentration of 300 nM) | > 30 | > 30 | 30 | > 30 | 22 |  |  |  | 
COC1CCN(c2nccc(Nc3cc4c(cn3)nc(COCCOCCOCCOCCON3CCN(c5ccc6c(c5)C(=O)N(C5CCC(=O)NC5=O)C6=O)CC3)n4C(C)C)n2)CC1 (centres unmarked) [compound 75] | C (>80% EGFR protein remaining after 72 hours of incubation with the test compound at a concentration of 300 nM) | > 30 | > 30 | > 30 | > 30 | > 30 |  |  |  | 
Cc1ncsc1-c1ccc([C@H](C)NC(=O)[C@H]2C[C@H](O)CN2C(=O)[C@@H](NC(=O)COCCOCCOCC#Cc2cccc3c2C(=O)N(C(C(=O)Nc2nccs2)c2cc(F)ccc2O)C3)C(C)(C)C)cc1 (some centres unmarked) [compound 84] | C (>80% EGFR protein remaining after 72 hours of incubation with the test compound at a concentration of 300 nM) | > 30 | 0.68 | 0.27 | 1.8 | 5.3 |  |  |  | 
COC1CCN(c2nccc(Nc3cc4c(cn3)nc(COCCOCCON3CCN(c5ccc6c(c5)C(=O)N(C5CCC(=O)NC5=O)C6=O)CC3)n4C(C)C)n2)CC1 (centres unmarked) [compound 74] | C (>80% EGFR protein remaining after 72 hours of incubation with the test compound at a concentration of 300 nM) | > 30 | > 30 | 10 | > 30 | > 30 |  |  |  | 
